The values below come from publication PMC6736837, “^18F-labelled triazolyl-linked argininamides targeting the neuropeptide Y Y1R for PET imaging of mammary carcinoma” (Scientific Reports, 2019).

The target in one test is T1, hY1R (Homo sapiens, UniProt P25929).
T1 construct: endogenous in cells; host or cells: SK-N-MC neuroblastoma cells
T1 sequence (P25929 1-384): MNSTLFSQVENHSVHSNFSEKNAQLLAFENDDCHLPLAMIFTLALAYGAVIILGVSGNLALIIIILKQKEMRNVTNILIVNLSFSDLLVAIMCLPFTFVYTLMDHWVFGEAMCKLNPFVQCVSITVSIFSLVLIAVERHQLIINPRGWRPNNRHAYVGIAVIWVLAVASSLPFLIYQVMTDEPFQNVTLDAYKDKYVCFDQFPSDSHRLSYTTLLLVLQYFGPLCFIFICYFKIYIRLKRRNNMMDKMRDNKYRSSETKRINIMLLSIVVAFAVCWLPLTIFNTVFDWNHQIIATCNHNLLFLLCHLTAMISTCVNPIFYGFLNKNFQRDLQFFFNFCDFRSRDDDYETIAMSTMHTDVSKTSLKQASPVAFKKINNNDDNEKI
The experiment in a line: Y1R competition binding with [^3H]UR-MK299 on SK-N-MC neuroblastoma cells. To be noted: displacement of [^3H]UR-MK299, SK-N-MC neuroblastoma cells. The method, then:
(§1) Data analysis (four-parameter sigmoidal fitting of specifically bound radioligand plotted against log(concentration) competitor) was performed using SigmaPlot (Systat Software, San Jose, CA, USA) (Y1R binding). IC50 values were converted to Ki values according to the Cheng-Prusoff equation[24].

For the next test, the target named is T2, hY5R (Homo sapiens, UniProt Q15761).
T2 construct: expressed in transfected cells; host or cells: HEC-1b cells (HEC-1b hY5R)
T2 sequence (Q15761 1-445): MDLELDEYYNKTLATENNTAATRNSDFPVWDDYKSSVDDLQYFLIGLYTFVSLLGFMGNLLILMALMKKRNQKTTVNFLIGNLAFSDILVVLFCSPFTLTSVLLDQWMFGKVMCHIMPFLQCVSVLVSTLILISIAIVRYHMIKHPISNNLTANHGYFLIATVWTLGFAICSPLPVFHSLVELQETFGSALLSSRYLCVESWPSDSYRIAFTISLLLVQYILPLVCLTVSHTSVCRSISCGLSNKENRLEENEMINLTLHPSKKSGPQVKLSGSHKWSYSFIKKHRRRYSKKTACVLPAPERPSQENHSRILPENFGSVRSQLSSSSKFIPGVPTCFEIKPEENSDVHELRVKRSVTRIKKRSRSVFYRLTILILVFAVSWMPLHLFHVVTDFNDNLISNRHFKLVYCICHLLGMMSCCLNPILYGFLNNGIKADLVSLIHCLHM
The experiment in a line: Competition binding on HEC-1b hY5R cells with [^3H]propionyl-pNPY. The settings on record: for selectivity for Y1R over Y5R (multiple of the Ki value for Y1R): calculated from Ki values; for binding to Y5R (in words): maximum concentration of 10 µM. The method, then:
as §1
(§2) Table S1: Structures, in-vitro Y1 receptor affinities and selectivities of potential Y1R PET radioligands. For Y2R, Y4R and Y5R, Ki values are given in the first row. In the second row, the calculated selectivities for Y1R over Y2R, Y4R and Y5R are given as a multiple of the Ki value for […]
(§3) compound structure hY1R hY2R hY4R hY5R
(§4) Ki ± SEMa Kiselectivity selectivity selectivity […]
(§5) aDetermined by competition binding on SK-N-MC neuroblastoma cells using the radioligand [3H]UR-MK2994.
(§6) Mean Ki values ± SEM are the results of three individual experiments each performed in triplicate. bDetermined by competition binding at CHO-hY2-Gqi5-mtAEQ cells and HEC-1b hY5R cells using the radioligand [3H]propionyl-pNPY. Two independent experiments were performed in triplicate. cDetermined by competition binding on CHO-hY4R-Gqi5-mtAEQ cells using the radioligand [3H]UR-KK200.
(§7) Two independent experiments were performed in triplicate.
(§8) SEM = standard error of the mean. […]

In the next test the target is T3, hY4R (Homo sapiens, UniProt P50391).
T3 construct: expressed in transfected cells; host or cells: CHO cells (CHO-hY4R-Gqi5-mtAEQ)
T3 sequence (P50391 whole entry): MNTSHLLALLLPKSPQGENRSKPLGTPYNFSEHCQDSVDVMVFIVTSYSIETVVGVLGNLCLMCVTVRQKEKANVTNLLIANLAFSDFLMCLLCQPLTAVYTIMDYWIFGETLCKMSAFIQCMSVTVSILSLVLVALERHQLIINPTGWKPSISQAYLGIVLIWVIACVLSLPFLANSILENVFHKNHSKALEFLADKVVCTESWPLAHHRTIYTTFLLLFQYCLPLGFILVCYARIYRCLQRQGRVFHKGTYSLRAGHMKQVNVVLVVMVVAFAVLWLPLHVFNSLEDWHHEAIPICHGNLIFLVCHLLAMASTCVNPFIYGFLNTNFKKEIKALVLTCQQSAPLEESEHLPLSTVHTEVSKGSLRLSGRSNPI
The experiment in a line: Competition binding on CHO-hY4R-Gqi5-mtAEQ cells with [^3H]UR-KK200. To be noted: for pKi: CHO-hY4R-Gqi5-mtAEQ cells, [^3H]UR-KK200; for selectivity for Y1R over Y4R (multiple of the Ki value for Y1R): calculated from Ki values; for binding to Y4R (in words): maximum concentration of 10 µM. How it is done:
as §1, §2, §3, §4, §5, §6, §7, §8

The target in a further test is T4, hY2R (Homo sapiens, UniProt P49146).
T4 construct: expressed in transfected cells; host or cells: CHO cells (CHO-hY2-Gqi5-mtAEQ)
T4 sequence (P49146 1-381): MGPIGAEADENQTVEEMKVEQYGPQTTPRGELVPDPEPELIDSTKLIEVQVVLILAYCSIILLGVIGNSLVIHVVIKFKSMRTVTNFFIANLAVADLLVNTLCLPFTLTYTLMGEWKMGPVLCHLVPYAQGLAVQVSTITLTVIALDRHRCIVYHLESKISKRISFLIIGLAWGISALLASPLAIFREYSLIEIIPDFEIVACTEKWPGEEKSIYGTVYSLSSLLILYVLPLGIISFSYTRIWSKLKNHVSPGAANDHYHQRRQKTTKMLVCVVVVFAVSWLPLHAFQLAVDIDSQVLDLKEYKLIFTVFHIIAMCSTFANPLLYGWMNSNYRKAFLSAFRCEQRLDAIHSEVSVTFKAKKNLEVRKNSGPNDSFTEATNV
The experiment in a line: Competition binding on CHO-hY2-Gqi5-mtAEQ cells with [^3H]propionyl-pNPY. To be noted: for selectivity for Y1R over Y2R (multiple of the Ki value for Y1R): calculated from Ki values; for binding to Y2R (in words): maximum concentration of 10 µM. How it is done: as §1, §2, §3, §4, §5, §6, §7, §8

pKi: −log10 of the molar value.

Molecule `C#CCNC(=O)N=C(N)NCCC[C@@H](NC(=O)C(c1ccccc1)c1ccccc1)C(=O)NCc1ccc(O)cc1` [compound 7] had a negative logarithm of the Ki (pKi) at hY1R of 9.03.
As for `N/C(=N/C(=O)NCc1cn([C@@H]2OC(CF)[C@@H](O)C(O)C2O)nn1)NCCC[C@@H](NC(=O)C(c1ccccc1)c1ccccc1)C(=O)NCc1ccc(O)cc1` (stereo partly drawn) [compound 11, (2R)‐5‐{[(1Z)‐Amino({[({1‐[(2R,5S)‐6‐(fluoromethyl)‐3,4,5‐trihydroxyoxan‐2‐yl]‐1H‐1,2,3‐triazol‐4‐yl}methyl)carbamoyl]imino})methyl]amino}‐2‐(2,2‐diphenylacetamido)‐N‐[(4‐hydroxyphenyl)-methyl]pentanamide], on hY5R, the pKi was under 4.82, the “selectivity for Y1R over Y5R (multiple of the Ki value for Y1R)” value (shortened to “selectivity for Y1R over Y5R”) was over 72 × and the “binding to Y5R (in words)” value was “None of the three compounds showed considerable binding”. The molecule also showed a pKi at hY1R of 6.68. Also, at hY4R, the pKi was under 5.52, the “selectivity for Y1R over Y4R (multiple of the Ki value for Y1R)” value (“selectivity for Y1R over Y4R” below) is on record as over 14 × and the “binding to Y4R (in words)” value is “None of the three compounds showed considerable binding”. On hY2R, the pKi is under 5.00, the “selectivity for Y1R over Y2R (multiple of the Ki value for Y1R)” value (from here on “selectivity for Y1R over Y2R”) is on record as over 48 × and the “binding to Y2R (in words)” value was “None of the three compounds showed considerable binding”.
As to `N/C(=N/C(=O)NCc1cn(CCOCCF)nn1)NCCC[C@@H](NC(=O)C(c1ccccc1)c1ccccc1)C(=O)NCc1ccc(O)cc1` [compound 12, (2R)‐5‐{[(1Z)‐Amino({[({1‐[2‐(2‐fluoroethoxy)ethyl]‐1H‐1,2,3‐triazol‐4‐yl}methyl)carbamoyl]-imino})methyl]amino}‐2‐(2,2‐diphenylacetamido)‐N‐[(4‐hydroxyphenyl)methyl]pentanamide], at hY5R, the pKi was under 4.82, the “selectivity for Y1R over Y5R” value is over 5415 × and the “binding to Y5R (in words)” value was “None of the three compounds showed considerable binding”. Also, at hY1R, the pKi is 8.55. Besides, at hY4R, the negative logarithm of the Ki (pKi) was under 5.00, the “selectivity for Y1R over Y4R” value is listed as over 3610 × and the “binding to Y4R (in words)” value is listed as “None of the three compounds showed considerable binding”. At hY2R, the pKi was under 5.00, the “selectivity for Y1R over Y2R” value is over 3610 × and the “binding to Y2R (in words)” value was “None of the three compounds showed considerable binding”.
As to `N/C(=N/C(=O)NCc1cn(CCOCCOCCOCCF)nn1)NCCC[C@@H](NC(=O)C(c1ccccc1)c1ccccc1)C(=O)NCc1ccc(O)cc1` [compound 13, (2R)‐5‐{[(1Z)‐Amino[({[1‐(2‐{2‐[2‐(2‐fluoroethoxy)ethoxy]ethoxy}ethyl)‐1H‐1,2,3‐triazol‐4‐yl]methyl}carbamoyl)imino]methyl]amino}‐2‐(2,2‐diphenylacetamido)‐N‐[(4‐hydroxyphenyl)-methyl]pentanamide], at hY5R, the pKi is under 5.00, the “selectivity for Y1R over Y5R” value is given as over 345 × and the “binding to Y5R (in words)” value is on record as “None of the three compounds showed considerable binding”. This molecule showed a pKi at hY1R of 7.54. In addition, at hY4R, the negative-log Ki (pKi) is under 5.00, the “selectivity for Y1R over Y4R” value is on record as over 345 × and the “binding to Y4R (in words)” value is “None of the three compounds showed considerable binding”. Further, at hY2R, the pKi is under 5.30, the “selectivity for Y1R over Y2R” value is recorded as over 173 × and the “binding to Y2R (in words)” value is recorded as “None of the three compounds showed considerable binding”.
